We go through one sequence from US20220313780A1, “METHODS AND COMPOSITIONS FOR TREATING INFLAMMATORY CONDITIONS” (THE SCRIPPS RESEARCH INSTITUTE, priority 2019, published 2022).

The test system of this assay is endothelial cells (EA.hy926). In words: Transendothelial Electric Resistance (TER) assay of thrombin-induced endothelial barrier disruption. Type of assay: cell-based. The note with it: peptide at 5 to 50 nM. The source says: The bottom curve in each panel of the figure is labeled as IIa for thrombin alone and represents the observed effects for thrombin (IIa) in the absence of peptide. In each panel, IIa was always present for each peptide added. The number in each panel indicates the concentration of each peptide for the respective curves. The peptide concentration of 0 is represented by the bottom curve labeled “IIa”. (A) the dose response inhibition over time of TER, expressed by Normalized Cell Index (NCI) by the PAR1 derived peptide P1(47-66) or TR47 using concentrations between 5 and 50 nM. (B) the dose response inhibition over time of NCI by the PAR3-derived peptide P3(42-65) or P3R using a 5 to 50 nM concentration range. (C) The NCI dose response inhibition over time by the short sequence PAR1-derived peptide P1(47-55) using a range of concentrations between 50 nM and 100 μM peptide. (D) The NCI dose response inhibition over time by the short sequence PAR3-derived peptide P3(42-54) using a range of concentrations between 1 μM and 200 μM peptide. (E) The NCI dose response inhibition over time by the hybrid peptide G10 in which the P1(47-55) peptide described in panel C was linked to a PAR3 peptide P3(51-65) by using 10 Gly residues. In this case the range of concentrations to study the dose response inhibition was between 3 and 50 nM peptide. An estimate for the percentage of activity for each peptide dilution in presence of thrombin can be quantified by obtaining the Area under the Curve (AUC) for each peptide dilution in comparison to the value for the AUC for thrombin alone in the absence of any peptide. These values were used to calculate the potency of each PAR peptide.
Transendothelial Electric Resistance (TER)-based assays were used to monitor the disruption of endothelial barrier integrity caused by thrombin. The anti-inflammatory, vasculoprotective actions of different PAR peptides for protecting against thrombin-induced vascular leakage on cultured endothelial cells (EA.hy926) were followed in real time using an iCELLigence machine (ACEA Biosciences Inc, San Diego, Calif.). EA.hy926 cells at a density of 10,000/well were pipetted into the wells of gold-plated microelectrode sensor (L8, Acea Biosciences). Subsequently, the increase of electrical resistance was monitored as cells grew and spread out on the microelectrodes to obtain confluence (reaching a plateau) over the TER plates connected to the recording instrument that detected in real time the changes in TER for each well. The effects of different PAR-derived peptides at the indicated concentrations were tested for dose-response inhibition of thrombin's effects when each of the peptide dilutions was added 30 min prior to the addition of thrombin (0.25 nM final in all wells). The percentage of inhibition was proportional to the increase in TER signal over time. Cell index values, reflecting TER signals, were normalized prior to addition of thrombin following manufacturer's directions.

“GAPPNSFEEFPFSALEGWTGATIT [P3R, PAR3-derived 24-mer peptide]”: the “effect on thrombin-induced disruption of endothelial barrier” value is reported as “had no significant effect”.
